Test results taken from ChEMBL document CHEMBL4622974, “Leveraging an Open Science Drug Discovery Model to Develop CNS-Penetrant ALK2 Inhibitors for the Treatment of Diffuse Intrinsic Pontine Glioma” (J Med Chem, 2020).

Experiments:
TGF-beta receptor type-1 [1] = target: T1, TGF-beta receptor type-1 (Homo sapiens, UniProt P36897); test: Inhibition of human ALK5 using casein as substrate in presence of [gamma-33P]-ATP by radiometric hotspot assay; type: ADME
T1 sequence (P36897 whole entry): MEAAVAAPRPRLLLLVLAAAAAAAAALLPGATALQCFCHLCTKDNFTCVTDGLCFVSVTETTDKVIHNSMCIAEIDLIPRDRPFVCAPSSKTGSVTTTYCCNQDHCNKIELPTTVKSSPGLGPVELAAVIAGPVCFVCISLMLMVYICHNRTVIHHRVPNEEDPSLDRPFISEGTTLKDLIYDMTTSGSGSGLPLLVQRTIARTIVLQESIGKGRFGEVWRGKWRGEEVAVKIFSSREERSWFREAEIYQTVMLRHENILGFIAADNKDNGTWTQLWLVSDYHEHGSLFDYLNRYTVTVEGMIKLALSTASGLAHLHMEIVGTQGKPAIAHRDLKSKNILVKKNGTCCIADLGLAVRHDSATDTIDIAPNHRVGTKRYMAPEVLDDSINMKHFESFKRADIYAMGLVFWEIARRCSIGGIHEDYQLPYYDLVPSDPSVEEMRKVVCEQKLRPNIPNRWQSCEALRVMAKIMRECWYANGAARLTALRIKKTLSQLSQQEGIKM

Activin receptor type-1 [2] = target: T2, Activin receptor type-1 (Homo sapiens, UniProt Q04771); test: Inhibition of human ALK2 using casein as substrate in presence of [gamma-33P]-ATP by radiometric hotspot assay
T2 sequence (Q04771 whole entry): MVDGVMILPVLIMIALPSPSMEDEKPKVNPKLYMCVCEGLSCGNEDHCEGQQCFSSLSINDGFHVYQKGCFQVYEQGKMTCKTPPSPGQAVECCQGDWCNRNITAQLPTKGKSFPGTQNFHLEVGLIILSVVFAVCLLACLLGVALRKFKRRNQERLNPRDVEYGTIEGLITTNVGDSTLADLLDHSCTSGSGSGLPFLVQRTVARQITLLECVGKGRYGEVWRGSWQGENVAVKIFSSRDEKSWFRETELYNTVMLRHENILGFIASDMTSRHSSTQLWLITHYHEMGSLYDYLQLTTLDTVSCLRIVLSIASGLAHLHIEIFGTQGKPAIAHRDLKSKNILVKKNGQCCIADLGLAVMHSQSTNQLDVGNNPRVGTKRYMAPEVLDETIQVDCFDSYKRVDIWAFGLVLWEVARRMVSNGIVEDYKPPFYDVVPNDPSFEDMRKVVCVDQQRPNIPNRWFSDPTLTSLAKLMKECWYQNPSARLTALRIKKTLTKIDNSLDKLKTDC

Activin receptor type-1 [3] = target: T2, Activin receptor type-1; test: Competitive displacement of PBI-6908 from nanoluciferase-fused ALK2 (unknown origin) expressed in HEK293 cells incubated for 2 hrs by NanoBRET NanoGlo substrate based NanoBRET assay; type: cell-based
TGF-beta receptor type-1 [4] = target: T1, TGF-beta receptor type-1; test: Inhibition of recombinant human ALK5 expressed in HEK293 cells transfected with CAGA-luciferase and Renilla luciferase reporter after 24 hrs by dual luciferase reporter assay; type: cell-based
[5] = target: Voltage-gated inwardly rectifying potassium channel KCNH2 (Homo sapiens, UniProt Q12809); test: Inhibition of human ERG expressed in HEK293 cells after 5 mins by IonWorks barracuda patch clamp method; type: cell-based
Sequence of Voltage-gated inwardly rectifying potassium channel KCNH2 (Q12809 whole entry): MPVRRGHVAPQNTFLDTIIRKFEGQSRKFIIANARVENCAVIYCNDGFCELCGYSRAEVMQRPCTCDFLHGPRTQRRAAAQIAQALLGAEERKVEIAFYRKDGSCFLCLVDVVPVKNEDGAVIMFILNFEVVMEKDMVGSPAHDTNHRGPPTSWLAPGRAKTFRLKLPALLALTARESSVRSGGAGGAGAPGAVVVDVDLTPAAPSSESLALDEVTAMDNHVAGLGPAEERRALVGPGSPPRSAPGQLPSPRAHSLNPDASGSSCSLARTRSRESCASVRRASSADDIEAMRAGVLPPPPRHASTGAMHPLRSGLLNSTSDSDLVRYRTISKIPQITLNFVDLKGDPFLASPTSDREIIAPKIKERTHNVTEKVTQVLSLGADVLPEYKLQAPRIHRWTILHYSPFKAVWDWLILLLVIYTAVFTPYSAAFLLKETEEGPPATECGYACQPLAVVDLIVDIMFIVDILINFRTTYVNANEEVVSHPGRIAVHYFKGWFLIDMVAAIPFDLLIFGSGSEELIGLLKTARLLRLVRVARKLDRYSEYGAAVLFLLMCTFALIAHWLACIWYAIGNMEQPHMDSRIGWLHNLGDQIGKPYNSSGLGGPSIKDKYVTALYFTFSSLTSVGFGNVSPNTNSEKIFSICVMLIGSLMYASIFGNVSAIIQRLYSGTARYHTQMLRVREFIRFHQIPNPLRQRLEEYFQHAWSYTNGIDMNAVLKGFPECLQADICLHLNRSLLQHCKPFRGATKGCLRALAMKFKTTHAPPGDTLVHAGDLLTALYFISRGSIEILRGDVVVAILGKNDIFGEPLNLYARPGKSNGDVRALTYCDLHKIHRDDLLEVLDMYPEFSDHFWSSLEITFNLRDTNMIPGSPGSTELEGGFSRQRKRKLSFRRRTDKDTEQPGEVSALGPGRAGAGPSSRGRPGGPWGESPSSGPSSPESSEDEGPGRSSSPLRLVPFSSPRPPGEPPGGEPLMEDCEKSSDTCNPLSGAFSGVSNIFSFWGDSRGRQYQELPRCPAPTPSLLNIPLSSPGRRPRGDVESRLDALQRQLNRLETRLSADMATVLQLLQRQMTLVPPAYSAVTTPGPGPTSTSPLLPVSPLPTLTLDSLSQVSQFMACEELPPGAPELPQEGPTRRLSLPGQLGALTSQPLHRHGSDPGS

[6] = AUCinfinity in CB17 SCID mouse at 10 mg/kg, po after 0.25 to 24 hrs by LC/MS/MS method; type: ADME, organism-based; design: dose 10 mg/kg, time infinity, route oral; conditions: in vivo
[7] = Toxicity in CB17 SCID mouse assessed as induction of adverse effect at 10 mg/kg, po; type: organism-based; conditions: in vivo
[8] = Volume of distribution at steady state in CB17 SCID mouse at 2 mg/kg, iv after 0.25 to 24 hrs by LC/MS/MS method; type: ADME, organism-based; conditions: in vivo, read-out: Vdss
Activin receptor type-1B = target: T3, Activin receptor type-1B (Homo sapiens, UniProt P36896); test: Inhibition of human ALK4 using casein as substrate in presence of [gamma-33P]-ATP by radiometric hotspot assay; type: ADME
T3 sequence (P36896 whole entry): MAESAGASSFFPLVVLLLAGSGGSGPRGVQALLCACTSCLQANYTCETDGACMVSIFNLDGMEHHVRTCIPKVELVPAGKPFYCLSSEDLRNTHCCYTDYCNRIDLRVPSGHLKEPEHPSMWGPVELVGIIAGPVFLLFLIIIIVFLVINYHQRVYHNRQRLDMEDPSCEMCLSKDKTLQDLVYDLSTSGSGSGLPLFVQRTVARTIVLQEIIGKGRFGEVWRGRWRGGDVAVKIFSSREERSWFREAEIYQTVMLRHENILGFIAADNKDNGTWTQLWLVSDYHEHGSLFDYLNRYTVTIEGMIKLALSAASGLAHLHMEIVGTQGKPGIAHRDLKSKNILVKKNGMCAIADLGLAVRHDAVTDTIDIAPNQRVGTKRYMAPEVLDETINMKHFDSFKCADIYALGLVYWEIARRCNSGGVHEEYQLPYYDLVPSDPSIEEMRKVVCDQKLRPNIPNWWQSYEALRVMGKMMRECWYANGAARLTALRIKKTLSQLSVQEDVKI

[9] = Toxicity in CB17 SCID mouse assessed as induction of adverse effect at 2 mg/kg, iv; type: organism-based; conditions: in vivo
[10] = Efflux ratio of apparent permeability across basolateral to apical over apical to basolateral side in human Caco2 cells at 5 uM incubated for 2 hrs by LC/MS/MS analysis; conditions: Caco-2
[11] = Cmax in CB17 SCID mouse at 10 mg/kg, po after 0.25 to 24 hrs by LC/MS/MS method; type: ADME, organism-based; design: dose 10 mg/kg, route oral; conditions: in vivo
[12] = Apparent permeability across apical to basolateral side in human Caco2 cells at 5 uM after 120 mins by LC-MS/MS analysis; conditions: Caco-2
[13] = Selectivity ratio of IC50 for human ALK4 to IC50 for human ALK2; type: ADME
[14] = Clearance in CB17 SCID mouse at 2 mg/kg, iv after 0.25 to 24 hrs by LC/MS/MS method; type: ADME, organism-based; conditions: in vivo
[15] = Half life in CD1 mouse liver microsomes at 1 uM incubated for 60 mins by LC/MS analysis; type: ADME, Microsome
[16] = Stability in human liver microsomes assessed as compound remaining at 1 uM incubated for 60 mins by LC/MS analysis; type: ADME, Microsome; conditions: read-out: Stability
[17] = Half life in human liver microsomes at 1 uM incubated for 60 mins by LC/MS analysis; type: ADME, Microsome
[18] = Stability in CD1 mouse liver microsomes assessed as compound remaining at 1 uM incubated for 60 mins by LC/MS analysis; type: ADME, Microsome; conditions: read-out: Stability
[19] = Apparent permeability across basolateral to apical side in human Caco2 cells at 5 uM after 120 mins by LC-MS/MS analysis; type: ADME, cell-based; conditions: Caco-2
[20] = Oral bioavailability in CB17 SCID mouse at 10 mg/kg after 0.25 to 24 hrs by LC/MS/MS method; type: ADME, organism-based; conditions: in vivo
[21] = Half life in CB17 SCID mouse at 10 mg/kg, po after 0.25 to 24 hrs by LC/MS/MS method; type: ADME, organism-based; conditions: in vivo

Row | SMILES | IC50 (TGF-beta receptor type-1 [1]) [nM] | IC50 (Activin receptor type-1 [2]) [nM] | IC50 (Activin receptor type-1 [3]) [nM] | IC50 (TGF-beta receptor type-1 [4]) [nM] | further results
1 | COc1cc(-c2cncc(-c3ccc(N4C[C@@H](C)N[C@@H](C)C4)cc3)c2C)cc(OC)c1OC | 1050 | 8 | 40 | 1430 | IC50 [5]: 5900 nM
2 | COc1cc(-c2cncc(-c3ccc(N4CCN(S(C)(=O)=O)CC4)cc3)c2C)cc(OC)c1OC | 1980 | 29 | 59 | 6390 | AUC(0-inf) [6]: 2.97 µM·h; Activity [7]: Non-Toxic; Vd [8]: 0.48 L/kg; IC50 (Activin receptor type-1B): 1130 nM; Activity [9]: Non-Toxic; efflux ratio at 2 h, 5 µM [10]: 1; Cmax [11]: 1.43 µM; Papp A→B at 2 h, 5 µM [12]: 34.5 ×10⁻⁶ cm/s; Ratio IC50 [13]: 39; clearance [14]: 7.9 mL/min/kg; half-life at 1 µM [15]: > 1 h; remaining at 1 h, 1 µM [16]: 83.6%; IC50 [5]: > 50000 nM; half-life at 1 µM [17]: > 1 h; remaining at 1 h, 1 µM [18]: 100%; Papp B→A at 2 h, 5 µM [19]: 33.8 ×10⁻⁶ cm/s; bioavailability [20]: 7%; half-life [21]: 0.8 h
3 | COc1cc(-c2cncc(-c3ccc(N4CCNCC4)cc3)c2)cc(OC)c1OC | – | – | – | – | IC50 (Activin receptor type-1B): 462 nM; Ratio IC50 [13]: 36
4 | COc1cc(-c2cncc(-c3ccc(C4=CCN(C)CC4)cc3)c2C)cc(OC)c1OC | 2520 | 14 | 102 | 7800 | –
5 | COc1cc(-c2cncc(-c3ccc(OC4CCNCC4)cc3)c2C)cc(OC)c1OC | 2850 | 6 | 31 | 1910 | AUC(0-inf) [6]: 65.8 µM·h; Activity [7]: Non-Toxic; Vd [8]: 2.23 L/kg; IC50 (Activin receptor type-1B): 1360 nM; Activity [9]: Non-Toxic; efflux ratio at 2 h, 5 µM [10]: 2.3; Cmax [11]: 4.71 µM; Papp A→B at 2 h, 5 µM [12]: 4.1 ×10⁻⁶ cm/s; Ratio IC50 [13]: 227; clearance [14]: 6 mL/min/kg; half-life at 1 µM [15]: > 1 h; remaining at 1 h, 1 µM [16]: 62.1%; IC50 [5]: 8100 nM; half-life at 1 µM [17]: > 1 h; remaining at 1 h, 1 µM [18]: 39.3%; Papp B→A at 2 h, 5 µM [19]: 9.4 ×10⁻⁶ cm/s; bioavailability [20]: 96%; half-life [21]: 7.7 h
6 | COc1cc(-c2cncc(-c3ccc(N4CCN(C(=O)N(C)C)CC4)cc3)c2C)cc(OC)c1OC | > 5000 | 4 | 149 | > 5000 | –
7 | COc1cc(-c2cncc(-c3ccc(CN4CCN(C)CC4)cc3)c2C)cc(OC)c1OC | 2640 | 20 | 108 | > 5000 | –
8 | COc1cc(-c2cncc(-c3ccc(OC4CCN(C)CC4)cc3)c2C)cc(OC)c1OC | 1650 | 6 | 67 | 2090 | –
9 | COc1cc(-c2cncc(-c3ccc(C4CCNCC4)cc3)c2C)cc(OC)c1OC | 1750 | 9 | 54 | 3420 | –
10 | COc1cc(-c2cncc(-c3ccc(N4CCN(C(C)C)CC4)cc3)c2C)cc(OC)c1OC | 2240 | 7 | 73 | 1820 | IC50 [5]: 3100 nM
11 | COc1cc(-c2cncc(-c3ccc(N4CCN(CCF)CC4)cc3)c2C)cc(OC)c1OC | 3210 | 17 | 178 | > 5000 | –
12 | COc1cc(-c2cncc(-c3ccc(N4CCN(C(C)=O)CC4)cc3)c2C)cc(OC)c1OC | 2520 | 22 | 267 | > 5000 | –
13 | COc1cc(OC)cc(-c2cncc(-c3ccc(N4CCNCC4)cc3)c2C)c1 | > 5000 | 39 | 440 | > 5000 | –
14 | COc1cc(-c2cncc(-c3ccc(N4CCS(=O)(=O)CC4)cc3)c2C)cc(OC)c1OC | 1230 | 16 | 169 | > 5000 | –

Further lines, with some results ahead:

Row | IC50 (TGF-beta receptor type-1 [1]) [nM] | IC50 (Activin receptor type-1 [2]) [nM] | IC50 (Activin receptor type-1 [3]) [nM] | IC50 (TGF-beta receptor type-1 [4]) [nM] | SMILES | further results
15 | > 5000 | 181 | 589 | > 5000 | CCc1c(-c2ccc(N3CCNCC3)cc2)cncc1-c1cc(OC)c(OC)c(OC)c1 | –
16 | 4660 | 42 | 159 | > 5000 | COc1cc(-c2cncc(-c3ccc(N4CCNCC4)cc3)c2C2CC2)cc(OC)c1OC | –
17 | > 5000 | 461 | 255 | > 5000 | COc1cc(-c2cncc(-c3ccc(N4CCNCC4)cc3)c2N)cc(OC)c1OC | –
18 | > 5000 | 67 | 184 | > 5000 | COc1cc(-c2cncc(-c3ccc(N4CCNCC4)cc3)c2C(F)(F)F)cc(OC)c1OC | –
19 | 731 | 3 | 15 | 679 | COc1cc(-c2cncc(-c3ccc(N4CCNCC4)cc3)c2C#N)cc(OC)c1OC | IC50 (Activin receptor type-1B): 257 nM; Ratio IC50 [13]: 86; IC50 [5]: 6000 nM
20 | > 5000 | 103 | 233 | > 5000 | COc1cc(-c2cncc(-c3ccc(N4CCNCC4)cc3)c2OC)cc(OC)c1OC | –
21 | 2360 | 28 | 334 | > 5000 | COc1cc(-c2cncc(-c3ccc(N4CCOCC4)cc3)c2C)cc(OC)c1OC | –
22 | 4850 | 9 | 56 | > 5000 | COc1cc(-c2cncc(-c3ccc(N4CCN(C)CC4)cc3)c2C)cc(OC)c1OC | –
23 | 1330 | 16 | 57 | 9450 | COc1cc(-c2cncc(-c3ccc(N4CCNCC4)cc3)c2Cl)cc(OC)c1OC | IC50 (Activin receptor type-1B): 962 nM; Ratio IC50 [13]: 60; IC50 [5]: 2700 nM
24 | 487 | 11 | 49 | 1510 | COc1cc(-c2cncc(-c3ccc(N4CCNCC4)cc3)c2C#N)cc(OC)c1F | –
25 | 3050 | 13 | 83 | 4530 | COc1cc(-c2cncc(-c3ccc(N4CCCNCC4)cc3)c2C)cc(OC)c1OC | –
26 | 880 | 15 | 32 | 2180 | COc1cc(-c2cncc(-c3ccc(N4CCNCC4)cc3)c2F)cc(OC)c1OC | IC50 (Activin receptor type-1B): 630 nM; Ratio IC50 [13]: 42
